Here are results for one molecule from patent publication US11999749B2, “Synthesis of a bis-mesylate salt of 4-amino-N-(1-((3-chloro-2-fluorophenyl)amino)-6-methylisoquinolin-5-yl)thieno[3,2-d]pyrimidine-7-carboxamide and intermediates thereto” (Genentech, Inc., priority 2021, dated 2024).

The nature of data set [1]: solubility screen of 1b in organic solvents. It is filed as physicochemical. From the text:
This is notwithstanding the previously established solubility of 1b in NMP; that solvent should not be used due to its toxicity and the allowed limit of ˜500 ppm in the final pharmaceutical product. The limit for NMP is considerably lower than the 5,000 ppm permitted for DMSO. One of the reasons for relying on the recrystallization step is to remove an excess of NMP from the final product.
The selection of an appropriate anti-solvent is based at least in part on good miscibility with the other solvent(s) being used, low solubility of the solid form (to give desired form), and the ability to effectively remove impurities. To ensure the best control and purge of inorganic impurities in the crude product, water was selected as the anti-solvent. To this end, a more detailed solubility study of the crude material in DMSO/water mixtures at 10, 70, 75 and 80° C. indicated a steep dependence of the solubility of 1b on water content, with temperature having a smaller impact on recovery yield.

Data set [2] in a line: hygroscopicity of the salt forms. It is filed as physicochemical. The following applies: relative to the bis-HCl salt.

Turning to `Cc1ccc2c(Nc3cccc(Cl)c3F)nccc2c1NC(=O)c1csc2c(N)ncnc12` [Compound 1b, 4-amino-N-(1-((3-chloro-2-fluorophenyl)amino)-6-methylisoquinolin-5-yl)thieno[3,2-d]pyrimidine-7-carboxamide bis-mesylate], the solubility result is listed as “sufficient solubility” in data set [1] (in DMSO) and “exceptionally low solubility” in data set [1] (in most organic solvents, initial solubility screen). Moreover, the hygroscopicity result in data set [2] is listed as “lower hygroscopicity”.
